Data on 5 molecules can be found in patent US20130101582A1, “Tiki1 and Tiki2, Wnt Inhibitors” (CHILDREN'S MEDICAL CENTER CORPORATION, priority 2010, published 2013).

One series concerns Tiki1 expression. Briefly: Regulation of Tiki1 and Dkk1 expression by maternal Wnt signaling, RT-PCR. The conditions noted are these: Xenopus embryos, RT-PCR at stage 10.5. The class given is in vivo. On the procedure:
FIG. 3C is a gel showing that Tiki1 expression is regulated by maternal Wnt signaling. Whole embryos were used for LiCl or UV treatment. 20 or 40 pg of Xwnt8 mRNA was injected into ventral marginal zone (VMZ) at 4 to 8-cell stage and VMZ was dissected at stage 10.5 for RT-PCR. ΔNTCF mRNA (1 or 2 ng) was injected into dorsal marginal zone (DMZ) at 4 to 8-cell stage and DMZ was dissected at stage 10.5 for RT-PCR. Con: control.
SO formation requires maternal Wnt/β-catenin signaling (De Robertis, E. M. et al., Annu Rev Cell Dev Biol 20, 285-308 (2004); Harland, R. et al., Annu Rev Cell Dev Biol 13, 611-667 (1997)), which we found is necessary and sufficient for Tiki1 (and Dkk1) expression.

Series [1] deals with Xenopus embryos. Briefly: Organizer gene expression in morpholino-injected whole Xenopus embryos (Table 1). The series is classed as in vivo. Set-up: Whole embryos displaying change in gene expression: Reduced, Percentage (%): concentration or dose not given beside the values. Here is the method: (§1) A functional cDNA expression screen was performed using arrayed Xenopus cDNAs to identify novel genes involved in AP patterning and Wnt signaling. Procedures for embryo manipulation, reverse transcription PCR and in situ hybridization were performed as previously described (Tamai, K. et al., Nature 407, 530-535 (2000)). The Arrayed Xenopus tropicalis full length cDNAs were used for the screening as performed previously (Kato, Y. et al., Nature 418, 641-646 (2002)). cDNA pools (in the CS107 vector) that contain 96 independent clones were transcribed in vitro using SP6 polymerase, and the resulting mRNA pools were injected into the dorsal side of the embryo at 4-cell stage at the dose of 10 ng RNA/embryo. Injected embryos were scored at stage 30-31 for enlarged or diminished anterior development. The positive pools were divided into smaller pools and the same process was repeated until a single cDNA was identified.
HA-Tiki1 mRNA injection rescued the effect of Tiki1MO on all head organizer genes examined (Table 1).

Series [2] relates to Xenopus embryos. Briefly: Anterior neural marker expression in morpholino-injected whole embryos (Table 2). The class given is in vivo. The settings on record: stage 16. Here is the method:
as §1
The specific expression in and the requirement for the formation of the head organizer imply Tiki1 function in anterior neural patterning. Tiki1MO was injected with fluorescein dextran (FLD, as a lineage tracer) into one dorsal-animal blastomeres at the 8-cell stage and analyzed expression of anterior neural markers at stage 16. Tiki1 MO suppressed the expression of, in the injected half of the embryo, forebrain marker BF1 and Otx2 (Table 2). […] HA-Tiki1 mRNA injection rescued the expression of BF1, Otx2, and En2 in Tiki1MO-injected embryos (Table 2).

In series [3] the test system is Xenopus embryos. Kind of series: Tiki1MO anterior development/head formation phenotype. The series is classed as in vivo. The conditions noted are these: 20 ng injected into two dorsal blastomeres of 8-cell stage embryos. Here is the method:
(§2) 20 ng of Tiki1MO was injected into two dorsal blastomeres of 8-cell stage embryos.

Series [4] has as its system Xenopus Tiki1 protein synthesis. Briefly: Tiki1 protein synthesis in embryos with morpholino, Western blotting of animal caps. The series is classed as in vivo. On the procedure:
FIG. 4A is a gel showing that Xenopus Tiki1 protein synthesis is specifically targeted by an antisense morpholino oligonucleotide (MO). 500 pg mRNA for Tiki1-FLAG (targeted by MO) or HA-Tiki1 (resistant to MO) were injected with or without the Tiki1MO (5, 10, 20, 40 ng) into the animal pole at the 2-cell stage, and animal caps were dissected at stage 10 for Western blotting.
as §2
For orientation: A western blot detects proteins with antibodies after separation by electrophoresis.

Series [5] addresses Recombinant human WNT3A protein (Homo sapiens, UniProt P56704). Briefly: In vitro incubation of recombinant WNT3A with purified protein, Triton X-114 phase separation. The series is classed as biochemical. The conditions noted are these: purified protein incubated with recombinant human WNT3A. On the procedure:
FIG. 6G is a gel showing that recombinant WNT3A was incubated with Krm2N or Tiki2N purified from WCL (top) or from CM (bottom) and was subjected to Triton X-114 phase separation.
FIG. 6H is a gel showing that Recombinant WNT3A was incubated with Krm2N or Tiki2N or Tiki2NΔ. purified from WCL and was subjected to Triton X-114 phase separation.
Recombinant human Tiki2N, which is the ectodomain harboring the conserved Tiki domain (FIG. 6J), was purified, via tandem affinity procedures from HEK293T cell extracts or CM.

In the next series the test system is Wnt3a signaling. Kind of series: TOPFLASH reporter assay, Wnt3a co-transfected with Tiki1 or Tiki2 in HEK293T cells. The class given is cell-based, human. An excerpt:
Wnt3a and Tiki1 or Tiki2 were co-transfected. The TOPFLASH reading (normalized to Renilla) in Wnt3a alone was set as 100. DNA transfection amounts are shown per well in a standard 24-well plate format. Representative data from one of three independent experiments is shown.
The enlarged head phenotype by Tiki1 overexpression is indistinguishable from that by overexpression of Dkk1, a Wnt/LRP6 antagonist (MacDonald, B. T. et al., Dev Cell 17, 9-26 (2009); Glinka, A. et al., Nature 391, 357-362 (1998)). […] Thus Tiki1 likely acts at or upstream of Wnt receptors. […] Xenopus Tiki2, and human Tiki1 and Tiki2 also behaved as Wnt antagonists in Xenopus embryos, HEK293T cells (FIG. 2C) and mouse L cells (FIG. 5A).
In general terms: A reporter such as luciferase makes a cellular process visible.

Where [6] appears, read: gene Chd, stage 10.5, injected in two dorsal blastomeres at 8-cell stage.
Setting [7] is: gene Gsc st.13 (prechordal plate, neurula stage).

Chain of Recombinant human WNT3A protein (P56704 19-352): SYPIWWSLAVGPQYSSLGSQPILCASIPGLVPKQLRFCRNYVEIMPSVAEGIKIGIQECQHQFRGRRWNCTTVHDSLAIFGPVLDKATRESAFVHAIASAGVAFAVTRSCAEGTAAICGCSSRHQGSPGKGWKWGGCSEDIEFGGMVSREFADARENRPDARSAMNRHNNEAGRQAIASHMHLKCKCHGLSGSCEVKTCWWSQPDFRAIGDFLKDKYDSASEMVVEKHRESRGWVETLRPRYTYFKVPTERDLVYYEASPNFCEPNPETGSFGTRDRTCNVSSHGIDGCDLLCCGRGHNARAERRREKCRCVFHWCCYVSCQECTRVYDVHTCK

Consider `[Cl-].[Li+]` [LiCl], for which the “Tiki1 and Dkk1 expression” value with Tiki1 expression was “induced Tiki1 and Dkk1 expression”.

For “Tiki1 MO: morpholino antisense oligonucleotide against Tiki1, 5′-CCAAATGATTACCATCATAGCTCAG-3′ (SEQ ID NO:13) (all phosphorodiamidate morpholino (PMO))”, the “Whole embryos displaying change in gene expression: Absent, Percentage (%)” value with Xenopus embryos [1] (setting [6]) came to 0%; in the series on Xenopus embryos [1] (gene Dkk1, stage 10.5), 25%; with Xenopus embryos [1] (setting [7]), 35%; in the series on Xenopus embryos [1] (gene Gsc, stage 10.5), 0%; in the series on Xenopus embryos [1] (gene Lim1, stage 10.5) it was 28%; with Xenopus embryos [1] (gene Otx2, stage 10.5), 7%. For the same molecule, the “Whole embryos displaying change in gene expression: Absent, Percentage (%)” value stood at 0% with Xenopus embryos [1] (gene Xnot, stage 10.5); 0% with Xenopus embryos [1] (gene Xnr3, stage 10.5); 63% with Xenopus embryos [2] (gene BF1, injected into one dorsal-animal blastomere at 8-cell stage); 40% in the series with Xenopus embryos [2] (gene En-2); 0% in the series with Xenopus embryos [2] (gene HoxB9); 35% with Xenopus embryos [2] (gene Otx2). The “Whole embryos displaying change in gene expression: NC (No Change), Percentage (%)” value with Xenopus embryos [1] (setting [6]) is recorded as 64%; in the series on Xenopus embryos [1] (gene Dkk1, stage 10.5) it was 35%; in the series on Xenopus embryos [1] (setting [7]) it was 33%; in the series on Xenopus embryos [1] (gene Gsc, stage 10.5), 34%; in the series on Xenopus embryos [1] (gene Lim1, stage 10.5), 18%; with Xenopus embryos [1] (gene Otx2, stage 10.5) it was 33%. In addition, the “Whole embryos displaying change in gene expression: NC (No Change), Percentage (%)” value turned out to be 87% with Xenopus embryos [1] (gene Xnot, stage 10.5); 93% with Xenopus embryos [1] (gene Xnr3, stage 10.5); 14% in the series with Xenopus embryos [2] (gene BF1); 35% in the series with Xenopus embryos [2] (gene En-2); 100% with Xenopus embryos [2] (gene HoxB9); 35% in the series with Xenopus embryos [2] (gene Otx2). The “Whole embryos displaying change in gene expression: Reduced, Percentage (%)” value in the series on Xenopus embryos [1] (setting [6]) is recorded as 36%; in the series on Xenopus embryos [1] (gene Dkk1, stage 10.5) it was 40%; in the series with Xenopus embryos [1] (setting [7]), 32%; in the series with Xenopus embryos [1] (gene Gsc, stage 10.5) it was 66%; in the series with Xenopus embryos [1] (gene Lim1, stage 10.5) it was 54%; in the series with Xenopus embryos [1] (gene Otx2, stage 10.5), 60%. The “Whole embryos displaying change in gene expression: Reduced, Percentage (%)” value in the series with Xenopus embryos [1] (gene Xnot, stage 10.5) came out at 13%; in the series with Xenopus embryos [1] (gene Xnr3, stage 10.5), 7%; in the series on Xenopus embryos [2] (gene BF1), 23%; with Xenopus embryos [2] (gene En-2), 25%; with Xenopus embryos [2] (gene HoxB9) it was 0%; with Xenopus embryos [2] (gene Otx2), 30%. Besides, the “Whole embryos displaying change in gene expression: increased, Percentage (%)” value with Xenopus embryos [2] (gene BF1), in the series with Xenopus embryos [2] (gene En-2), in the series on Xenopus embryos [2] (gene HoxB9) and in the series with Xenopus embryos [2] (gene Otx2) was 0% throughout. Besides, the “Injected embryos that developed anterior defects” value in the series with Xenopus embryos [3] is reported as “roughly 50%”. Moreover, the “Synthesis of HA-Tiki1” value in series [4] (HA-Tiki1 mRNA lacks the MO complementary sequence) is “unable to block the synthesis”. In addition, the “Synthesis of exogenously expressed Tiki1 (Tiki1-FLAG)” value in series [4] (Tiki1-FLAG mRNA targeted by MO, animal caps stage 10) is on record as “specifically blocked the synthesis”.

B1: KrmN: control recombinant protein, ectodomain of the transmembrane Kremen protein (protein, UniProt Q8NCW0 26-364, looked up)
extracellular domain: GSLHSPGLSECFQVNGADYRGHQNRTGPRGAGRPCLFWDQTQQHSYSSASDPHGRWGLGAHNFCRNPDGDVQPWCYVAETEEGIYWRYCDIPSCHMPGYLGCFVDSGAPPALSGPSGTSTKLTVQVCLRFCRMKGYQLAGVEAGYACFCGSESDLARGRLAPATDCDQICFGHPGQLCGGDGRLGVYEVSVGSCQGNWTAPQGVIYSPDFPDEYGPDRNCSWALGPPGAALELTFRLFELADPRDRLELRDAASGSLLRAFDGARPPPSGPLRLGTAALLLTFRSDARGHAQGFALTYRGLQDAAEDPEAPEGSAQTPAAPLDGANVSCSPRPGAPPAA
modifications: extracellular domain
On to B1, for which the “Partitioning of WNT3A in Triton X-114 phase separation after in vitro incubation” value in series [5] is “remained in the detergent phase”.

B2: Tiki2NΔ: deletion mutant lacking a segment of the Tiki domain, inactive in modifying WNT3A (protein)
chain: RPQPPDGGQCRPPGSQRDLNSFLWTIRRDPPAYLFGTIHVPYTRVWDFIPDNSKAAFQASTRVYFELDLTDPYTISALASCQLLPHGENLQDVLPHELYWRLKRHLDYVKLMMPSWMTPAQRGKGLYADYLFNAIAGNWERKRPVWVMLMVNSLTERDVRFRGVPVLDLYLAQQAEKMKKTTGAVEQVEEQCHPLNNGLNFSQVLFALNQTLLQQESVRAGSLQASYTTEDLIKHYNCGDLSAVIFNHDTSQLPNFINTTLPPHEQVTAQEIDSYFRQELIYKRNERMGKRVMALLRENEDKICFFAFGAGHFLGNNTVIDILRQAGLEVDHTPAGQAIHSPAPQSPAPSPEGTSTSPAPVTPAAAVPEAPSVTPTAPPEDEDPALSPHLLLPDSLSQLEEFGRQRKWHKRQSTHQRPRQFNDLWVRIEDSTTASPPPLPLQPTHSSGTAKPPFQLSDQLQQQDPPG
modifications: left off: small tags and cut ends
For B2, the “Partitioning of WNT3A in Triton X-114 phase separation after in vitro incubation” value in series [5] is “remained in the detergent phase”.

B3: Human Tiki1: Human Tiki1 (Q86V40/LOC129293) (SEQ ID NO:1), expressed by transfection (protein, listed as Homo sapiens)
chain: MSPWSWFLLQTLCLLPTGAASRRGAPGTANCELKPQQSELNSFLWTIKRDPPSYFFGTIHVPYTRVWDFIPDNSKEAFLQSSIVYFELDLTDPYTISALTSCQMLPQGENLQDVLPRDIYCRLKRHLEYVKLMMPLWMTPDQRGKGLYADYLFNAIAGNWERKRPVWVMLMVNSLTEVDIKSRGVPVLDLFLAQEAERLRKQTGAVEKVEEQCHPLNGLNFSQVIFALNQTLLQQESLRAGSLQIPYTTEDLIKHYNCGDLSSVILSHDSSQVPNFINATLPPQERITAQEIDSYLRRELIYKRNERIGKRVKALLEEFPDKGFFFAFGAGHFMGNNTVLDVLRREGYEVEHAPAGRPIHKGKSKKTSTRPTLSTIFAPKVPTLEVPAPEAVSSGHSTLPPLVSRPGSADTPSEAEQRFRKKRRRSQRRPRLRQFSDLWVRLEESDIVPQLQVPVLDRHISTELRLPRRGHSHHSQMVASSACLSLWTPVFWVLVLAFQTETPLL
Consider B3, for which the “Wnt3a signaling, TOPFLASH reporter” value in the series on Wnt3a signaling is on record as “inhibit Wnt3a signaling”.
